One may read the pIC50 as the negative decadic logarithm of the IC50, by convention in mol/L.

pIC50: −log10 of the molar value. Read-outs that look alike come from different tables or passages of the source. Bounds are passed on as bounds.

For one assay, the target named is Jarid1A (Homo sapiens (Human), UniProt P29375). The experiment in a line: Jarid1A in vitro enzyme inhibition assay (TR-FRET). The format is biochemical. From the text: The enzymatic assay of Jarid1A activity is based upon Time Resolved-Fluorescence Resonance Energy Transfer (TR-FRET) detection.
On the technique in general: In TR-FRET formats the signal depends on donor and acceptor labels being close together.

In another assay the target is Jarid1B (Homo sapiens (Human), UniProt Q9UGL1). The experiment in a line: Jarid1B in vitro enzyme inhibition assay (TR-FRET). It is filed as biochemical.
Another assay has as its target JMJD2C (Homo sapiens (Human), UniProt Q9H3R0). The experiment in a line: JMJD2C in vitro enzyme inhibition assay (TR-FRET). It is filed as biochemical.
The next assay deals with FBXL10 (Homo sapiens (Human), UniProt Q8NHM5). Briefly: FBXL10 in vitro enzyme inhibition assay (AlphaScreen). It is filed as biochemical. The procedure:
Reaction product was determined quantitatively by AlphaScreen detection after the addition of detection reagents anti-H3K36me1 antibody, AlphaScreen® Streptavidin-coated Donor beads, and AlphaScreen® Protein A Acceptor beads in 50 mM HEPES, pH7.3, 10 mM NaCl, 0.005% Brij35, 5 mM EDTA, 2 mg/ml BSA to final 10 μg/ml beads.
Plates were incubated at room temperature for 40 minutes, followed by addition of 3 μl of 50 μg/ml AlphaScreen® Streptavidin-coated Donor beads and AlphaScreen® Protein A Acceptor beads in 50 mM HEPES, pH7.3, 10 mM NaCl, 0.005% Brij35, 5 mM EDTA, 2 mg/ml BSA. Plates were read by EnVisionMultilabel Reader in AlphaScreen mode after a minimum of 2 hour or up to overnight incubation at room temperature. The AlphaScreen signal for each well was used to determine inhibition constant (IC50).
On the technique in general: Bead proximity is the source of the signal in Alpha formats.

A further assay addresses JMJD2A (Homo sapiens (Human), UniProt O75164). The experiment in a line: JMJD2A in vitro enzyme inhibition assay (TR-FRET). The conditions noted are these: read-out: JMJD2A IC50.
The next assay deals with KDM5A/B. The experiment in a line: In vitro cell-based assay: quantitative immuno-blotting of tri-methyl H3K4 in ZR-75-1 breast cancer cells. The note with it: 72 hours exposure, read-out: Cellular IC50. From the text: This quantitative immuno-blotting assay measures the amount tri-methylated histone H3 at amino acid Lysine number 4, a specific substrate […] of the direct enzymatic activity of the histone demethylases KDM5A and KDM5B from extracts of the ZR-75-1 breast cancer cell line.
This assay is a fluorometric immunoassay for the quantification of tri-methyl H3K4 extracted from cells treated with test compound and is used as a measure of the cellular inhibition of KDM5A/B.
ZR-75-1 (PTEN null, ER+) breast cancer cells numbering 50,000 (ATCC) were seeded into each well of a 96-well tissue culture treated plate and then exposed to an 11 point dilution of test compound with final concentration ranges of test compound ranging from […] to 10 nM. […] Extracts were prepared containing all of the cellular histone material using detergent based lysis and sonication methods. These lysates were subsequently normalized for total protein content using a colorimetric bicinchonic acid assay (MicroBCA Pierce/Thermo Scientific). Normalized cell extracts were then subjected to typical immuno-blotting procedures using NuPage reagents (Life Technologies). Electrophoretically separated histones were then transferred and immobilized using polyvinylidene difluoride membrane (Immobilon-FL Millipore). The amount of tri-methylated lysine 4 of histone H3 was detected using an antibody specific to the tri-methylated state (Cell Signaling Technologies) and quantified on an infrared imager using a densitometry software package (Odyssey CLx, Image Studio, Li-Cor). This background subtracted densitometry value was reported as a ration of the GAPDH amount for that sample and then calculated as a percent of the DMSO treated sample. The software package XL-fit (IDBS) was then used to calculate a relative IC50 value for the dilution series of a given test compound according to the equation: fit=(D+((Vmax*(x^n))/((x^n)+(Km^n)))).

FBXL10, sequence (Q8NHM5 1-650): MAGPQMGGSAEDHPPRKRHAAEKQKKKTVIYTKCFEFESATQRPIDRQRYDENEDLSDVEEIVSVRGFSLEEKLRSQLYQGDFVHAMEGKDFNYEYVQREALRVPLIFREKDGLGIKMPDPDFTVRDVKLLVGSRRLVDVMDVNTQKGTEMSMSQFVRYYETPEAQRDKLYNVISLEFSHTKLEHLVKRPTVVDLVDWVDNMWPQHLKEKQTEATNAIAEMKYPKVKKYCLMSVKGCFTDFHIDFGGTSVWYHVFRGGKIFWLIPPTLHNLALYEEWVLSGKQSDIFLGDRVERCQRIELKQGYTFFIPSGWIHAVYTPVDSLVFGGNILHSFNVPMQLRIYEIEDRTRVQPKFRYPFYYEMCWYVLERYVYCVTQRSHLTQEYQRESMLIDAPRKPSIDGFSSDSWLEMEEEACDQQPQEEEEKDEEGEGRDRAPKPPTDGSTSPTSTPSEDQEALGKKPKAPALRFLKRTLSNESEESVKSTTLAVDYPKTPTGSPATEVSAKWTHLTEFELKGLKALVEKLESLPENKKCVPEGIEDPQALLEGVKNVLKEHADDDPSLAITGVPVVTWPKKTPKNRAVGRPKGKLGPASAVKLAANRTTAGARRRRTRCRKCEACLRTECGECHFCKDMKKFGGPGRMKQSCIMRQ
Jarid1B, sequence (Q9UGL1 2-751): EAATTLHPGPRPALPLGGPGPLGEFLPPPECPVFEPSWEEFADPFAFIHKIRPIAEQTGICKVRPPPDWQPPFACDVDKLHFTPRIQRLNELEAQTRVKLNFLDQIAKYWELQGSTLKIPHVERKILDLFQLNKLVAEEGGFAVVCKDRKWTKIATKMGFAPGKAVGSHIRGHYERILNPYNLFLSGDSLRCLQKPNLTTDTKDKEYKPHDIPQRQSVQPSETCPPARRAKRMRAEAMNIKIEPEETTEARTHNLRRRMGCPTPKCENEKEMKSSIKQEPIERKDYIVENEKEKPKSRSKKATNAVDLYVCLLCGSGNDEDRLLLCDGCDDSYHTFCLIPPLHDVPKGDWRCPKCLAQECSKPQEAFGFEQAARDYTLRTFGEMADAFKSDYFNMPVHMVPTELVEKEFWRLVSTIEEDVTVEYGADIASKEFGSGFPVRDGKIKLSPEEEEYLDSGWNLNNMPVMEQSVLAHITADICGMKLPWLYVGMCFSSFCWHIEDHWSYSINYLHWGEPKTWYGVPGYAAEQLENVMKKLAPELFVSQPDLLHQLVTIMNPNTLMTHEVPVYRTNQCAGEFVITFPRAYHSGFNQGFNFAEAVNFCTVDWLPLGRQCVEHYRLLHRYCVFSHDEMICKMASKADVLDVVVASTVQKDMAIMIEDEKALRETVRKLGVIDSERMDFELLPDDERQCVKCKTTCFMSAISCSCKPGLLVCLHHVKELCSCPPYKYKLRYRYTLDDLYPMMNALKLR
JMJD2C, sequence (Q9H3R0 2-372): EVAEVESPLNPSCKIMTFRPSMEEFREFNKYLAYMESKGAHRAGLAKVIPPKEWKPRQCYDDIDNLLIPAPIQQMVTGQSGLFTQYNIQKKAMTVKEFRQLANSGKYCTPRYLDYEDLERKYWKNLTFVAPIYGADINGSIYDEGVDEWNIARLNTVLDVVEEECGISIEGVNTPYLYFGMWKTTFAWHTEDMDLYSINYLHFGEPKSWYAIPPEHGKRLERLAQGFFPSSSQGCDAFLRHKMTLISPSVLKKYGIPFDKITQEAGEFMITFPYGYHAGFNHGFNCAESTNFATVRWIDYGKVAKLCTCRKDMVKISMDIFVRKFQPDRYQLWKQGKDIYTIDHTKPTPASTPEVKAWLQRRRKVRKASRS
JMJD2A, sequence (O75164 1-350): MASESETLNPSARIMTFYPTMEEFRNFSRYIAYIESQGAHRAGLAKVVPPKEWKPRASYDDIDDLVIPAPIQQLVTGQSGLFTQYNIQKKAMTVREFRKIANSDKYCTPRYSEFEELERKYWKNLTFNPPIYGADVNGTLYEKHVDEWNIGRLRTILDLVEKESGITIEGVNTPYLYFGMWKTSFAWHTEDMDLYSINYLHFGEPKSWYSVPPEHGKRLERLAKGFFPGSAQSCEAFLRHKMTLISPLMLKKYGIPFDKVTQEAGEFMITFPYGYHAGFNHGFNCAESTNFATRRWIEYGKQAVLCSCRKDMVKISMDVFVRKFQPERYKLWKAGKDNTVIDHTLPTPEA
Jarid1A, sequence (P29375 1-1090): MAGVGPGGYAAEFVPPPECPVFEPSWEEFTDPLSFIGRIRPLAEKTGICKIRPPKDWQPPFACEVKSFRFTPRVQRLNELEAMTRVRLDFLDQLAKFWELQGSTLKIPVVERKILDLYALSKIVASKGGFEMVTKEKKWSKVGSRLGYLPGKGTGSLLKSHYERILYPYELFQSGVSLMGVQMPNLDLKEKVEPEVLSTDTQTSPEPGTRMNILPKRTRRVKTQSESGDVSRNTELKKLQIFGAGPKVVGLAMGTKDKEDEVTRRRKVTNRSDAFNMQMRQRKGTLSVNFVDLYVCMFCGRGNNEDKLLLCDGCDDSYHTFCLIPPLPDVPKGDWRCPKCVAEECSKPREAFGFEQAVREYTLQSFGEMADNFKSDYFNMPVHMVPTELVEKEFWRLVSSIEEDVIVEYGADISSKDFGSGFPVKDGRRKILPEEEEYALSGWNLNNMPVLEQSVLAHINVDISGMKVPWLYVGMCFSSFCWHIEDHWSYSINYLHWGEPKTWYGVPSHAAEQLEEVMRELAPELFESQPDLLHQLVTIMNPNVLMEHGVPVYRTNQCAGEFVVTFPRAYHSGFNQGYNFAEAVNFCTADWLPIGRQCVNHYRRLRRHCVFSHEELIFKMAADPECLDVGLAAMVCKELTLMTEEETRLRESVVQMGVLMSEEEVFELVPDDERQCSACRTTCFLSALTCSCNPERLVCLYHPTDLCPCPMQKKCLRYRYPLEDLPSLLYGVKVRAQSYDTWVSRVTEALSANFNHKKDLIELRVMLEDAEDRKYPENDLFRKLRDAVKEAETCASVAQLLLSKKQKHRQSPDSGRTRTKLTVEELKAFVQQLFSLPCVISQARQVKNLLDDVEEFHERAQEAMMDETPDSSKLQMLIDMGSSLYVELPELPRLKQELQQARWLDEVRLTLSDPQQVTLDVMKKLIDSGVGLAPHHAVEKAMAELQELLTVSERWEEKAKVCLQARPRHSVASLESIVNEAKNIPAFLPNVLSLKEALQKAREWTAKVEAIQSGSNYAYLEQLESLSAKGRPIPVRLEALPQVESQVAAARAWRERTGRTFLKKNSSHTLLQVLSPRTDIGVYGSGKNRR
Procedure for JMJD2A: (§1) This assay determines the ability of a test compound to inhibit Jarid1A, Jarid1B, JMJD2C, and JMJD2A demethylase activity.
Reaction product was determined quantitatively by TR-FRET after the addition of detection reagent Phycolink Streptavidin-allophycocyanin (Prozyme) and Europium-anti-di-methylated histone H3 lysine 9 (H3K9me2) antibody (PerkinElmer) in the presence of 5 mM EDTA in LANCE detection buffer (PerkinElmer) at a final concentration of 50 nM and 1 nM, respectively.
The assay reaction was initiated by the following: 2 μl of the mixture of 900 nM H3K9me3-biotin labeled peptide and 6 μM alpha-ketoglutaric acid with 2 μl of 11-point serial diluted inhibitor in 3% DMSO were added to each well of plate, followed by the addition of 2 μl of 6 nM JMJD2A to initiate the reaction. The reaction mixture was incubated at room temperature for 30 minutes, and terminated by the addition of 6 μl of 5 mM EDTA in LANCE detection buffer containing 100 nM Phycolink Streptavidin-allophycocyanin and 2 nM Europium-anti-H3K9me2 antibody.
Procedure for Jarid1B: as §1
The ability of test compounds to inhibit the activity of Jarid1B was determined in 384-well plate format under the following reaction conditions: 0.8 nM Jarid1B, 300 nM H3K4me3-biotin labeled peptide (Anaspec cat #64357), 2 μM alpha-ketoglutaric acid in assay buffer of 50 mM HEPES, pH7.3, 0.005% Brij35, 0.5 mM TCEP, 0.2 mg/ml BSA, 50 μM sodium L-ascorbate, and 2 μM ammonium iron(II) sulfate. Reaction product was determined quantitatively by TR-FRET after the addition of detection reagent Phycolink Streptavidin-allophycocyanin (Prozyme) and Europium-anti-mono- or di-methylated histone H3 lysine 4 (H3K4me1-2) antibody (PerkinElmer) in the presence of 5 mM EDTA in LANCE detection buffer (PerkinElmer) at a final concentration of 25 nM and 1 nM, respectively.
The assay reaction was initiated by the following: 2 μl of the mixture of 900 nM H3K4me3-biotin labeled peptide and 6 μM alpha-ketoglutaric acid with 2 μl of 11-point serial diluted inhibitor in 3% DMSO was added to each well of the plate, followed by the addition of 2 μl of 2.4 nM Jarid1B to initiate the reaction. The reaction mixture was incubated at room temperature for 30 minutes, and terminated by the addition of 6 μl of 5 mM EDTA in LANCE detection buffer containing 50 nM Phycolink Streptavidin-allophycocyanin and 2 nM Europium-anti-H3K4me1-2 antibody. Plates were read by EnVisionMultilabel Reader in TR-FRET mode (excitation at 320 nm, emission at 615 nm and 665 nm) after 1 hour incubation at room temperature. A ratio was calculated (665/615) for each well and fitted to determine inhibition constant (IC50).

As to `O=C(O)c1ccnc(-n2nc(C3CC3)cc2O)c1` [Example 2, 2-(3-cyclopropyl-5-hydroxy-1H-pyrazol-1-yl)isonicotinic acid], the pIC50 against Jarid1A was greater than 7.00; against Jarid1B, greater than 7.00; against JMJD2C it was 6.00 to 7.00; against FBXL10, greater than 7.00; at JMJD2A it was 6.00 to 7.00.
`O=C(O)c1ccnc(-n2nccc2-c2cccc(O)c2)c1` [Example 17, 2-(5-(3-hydroxyphenyl)-1H-pyrazol-1-yl)isonicotinic acid]: the pIC50 against Jarid1A, against Jarid1B, at JMJD2C and on JMJD2A was 6.00 to 7.00 in each case.
For the compound `O=C(O)c1ccnc(-n2ccc(CCc3ccccc3)n2)c1` [Example 35, 2-(3-phenethyl-1H-pyrazol-1-yl)isonicotinic acid], the pIC50 against Jarid1A, at Jarid1B, at JMJD2C and on JMJD2A was 6.00 to 7.00 in each case.
For the compound `O=C(O)c1ccnc(-n2nccc2OCc2ccccc2)c1` [Example 39, 2-(5-(benzyloxy)-1H-pyrazol-1-yl)isonicotinic acid], the pIC50 against Jarid1A, at Jarid1B, against JMJD2C and at JMJD2A was greater than 7.00 in each case.
As for `O=C(O)c1ccnc(-n2nccc2OCc2ccc(Br)cc2)c1` [Example 57, 2-{5-[(4-bromobenzyl)oxy]-1H-pyrazol-1-yl}pyridine-4-carboxylic acid], the pIC50 is greater than 7.00 against Jarid1A, greater than 7.00 against Jarid1B, greater than 7.00 on JMJD2C and 6.00 to 7.00 in the assay with KDM5A/B (Homo sapiens).
`CCCCOc1cc(Cl)ccc1COc1ccnn1-c1cc(C(=O)O)ccn1` [Example 111, 2-[5-[(2-butoxy-4-chlorophenyl)methoxy]pyrazol-1-yl]pyridine-4-carboxylic acid]: the pIC50 is 6.00 to 7.00 at Jarid1A; 6.00 to 7.00 against Jarid1B; 5.00 to 6.00 on JMJD2C; 5.00 to 6.00 against FBXL10; 5.00 to 6.00 on JMJD2A.
With `CC(C)COc1cc(Cl)ccc1COc1ccnn1-c1cc(C(=O)O)ccn1` [Example 112, 2-[5-[[4-chloro-2-(2-methylpropoxy)phenyl]methoxy]pyrazol-1-yl]pyridine-4-carboxylic acid], the pIC50 on Jarid1A was 6.00 to 7.00; against Jarid1B, 6.00 to 7.00; against JMJD2C, 5.00 to 6.00; against FBXL10, 5.00 to 6.00; on JMJD2A, 5.00 to 6.00.
As to `O=C(O)c1ccnc(-n2nccc2OCc2ccc(F)cc2OCc2ccc(F)cc2)c1` [Example 118, 2-[5-[[4-fluoro-2-[(4-fluorophenyl)methoxy]phenyl]methoxy]pyrazol-1-yl]pyridine-4-carboxylic acid], the negative-log IC50 (pIC50) against Jarid1A is greater than 7.00; against Jarid1B, greater than 7.00; against JMJD2C it was 6.00 to 7.00; at FBXL10, 5.00 to 6.00; at JMJD2A, 6.00 to 7.00.
With `CC1(C)Cc2cccc(COc3ccnn3-c3cc(C(=O)O)ccn3)c2O1` [Example 124, 2-[5-[(2,2-dimethyl-3H-1-benzofuran-7-yl)methoxy]pyrazol-1-yl]pyridine-4-carboxylic acid], the negative-log IC50 (pIC50) at Jarid1A was 6.00 to 7.00; at Jarid1B it was greater than 7.00; with KDM5A/B (Homo sapiens) it was less than 5.00.
With `Cc1ccc(COc2ccnn2-c2cc(C(=O)O)ccn2)c(Cl)c1` [Example 130, 2-[5-[(2-chloro-4-methylphenyl)methoxy]pyrazol-1-yl]pyridine-4-carboxylic acid], the pIC50 against Jarid1A was 6.00 to 7.00; on Jarid1B it was 6.00 to 7.00; against JMJD2C, 5.00 to 6.00; at FBXL10, 5.00 to 6.00; on JMJD2A, 6.00 to 7.00.
Turning to `Cc1ccc(COc2ccnn2-c2cc(C(=O)O)ccn2)c(C)c1` [Example 132, 2-[5-[(2,4-dimethylphenyl)methoxy]pyrazol-1-yl]pyridine-4-carboxylic acid], the pIC50 is greater than 7.00 against Jarid1A; greater than 7.00 at Jarid1B; 6.00 to 7.00 against JMJD2C; 5.00 to 6.00 on FBXL10; 6.00 to 7.00 on JMJD2A.
`O=C(O)c1ccnc(-n2nccc2OCc2ccc(F)c(OCc3ccc(F)cc3)c2)c1` [Example 139, 2-[5-[[4-fluoro-3-[(4-fluorophenyl)methoxy]phenyl]methoxy]pyrazol-1-yl]pyridine-4-carboxylic acid]: the pIC50 with KDM5A/B (Homo sapiens) is 6.00 to 7.00.
On to `O=C(O)c1ccnc(-n2nccc2OCc2ccc(Cl)c(OCC3CC3)c2)c1` [Example 140, 2-[5-[[4-chloro-3-(cyclopropylmethoxy)phenyl]methoxy]pyrazol-1-yl]pyridine-4-carboxylic acid], for which the pIC50 on Jarid1A is 6.00 to 7.00; on Jarid1B it was 6.00 to 7.00; against FBXL10, 5.00 to 6.00; on JMJD2A, 6.00 to 7.00.
Regarding `O=C(O)c1ccnc(-n2nc(-c3ccc(Cl)cc3)cc2O)c1` [Example 158, 2-[3-(4-chlorophenyl)-5-hydroxypyrazol-1-yl]pyridine-4-carboxylic acid], the pIC50 against Jarid1A is 5.00 to 6.00; against Jarid1B, 5.00 to 6.00; on JMJD2C, 5.00 to 6.00; against FBXL10 it was greater than 7.00; at JMJD2A, 5.00 to 6.00.
Regarding `O=C(O)c1ccnc(-n2nc(-c3cccc(Cl)c3)cc2O)c1` [Example 159, 2-[3-(3-chlorophenyl)-5-hydroxypyrazol-1-yl]pyridine-4-carboxylic acid], the pIC50 against Jarid1A was 5.00 to 6.00; against Jarid1B, 5.00 to 6.00; against JMJD2C, 5.00 to 6.00; at FBXL10, greater than 7.00; at JMJD2A, less than 5.00.
For the compound `O=C(O)c1ccnc(-n2nc(C3CCCC3)cc2O)c1` [Example 160, 2-(3-cyclopentyl-5-hydroxypyrazol-1-yl)pyridine-4-carboxylic acid], the pIC50 on Jarid1A was 5.00 to 6.00; on Jarid1B, 6.00 to 7.00; against JMJD2C, 5.00 to 6.00; against FBXL10, greater than 7.00; at JMJD2A it was less than 5.00.
For the compound `CC(c1ccccc1)c1cc(O)n(-c2cc(C(=O)O)ccn2)n1` (stereo not drawn) [Example 162, 2-[5-hydroxy-3-(1-phenylethyl)pyrazol-1-yl]pyridine-4-carboxylic acid], the pIC50 was 5.00 to 6.00 at Jarid1B, 5.00 to 6.00 at JMJD2C, greater than 7.00 at FBXL10 and less than 5.00 on JMJD2A.
In the case of `O=C(O)c1ccnc(-n2nc(Cc3ccccc3Cl)cc2O)c1` [Example 163, 2-[3-[(2-chlorophenyl)methyl]-5-hydroxypyrazol-1-yl]pyridine-4-carboxylic acid], the pIC50 against Jarid1B was 5.00 to 6.00; on JMJD2C, 5.00 to 6.00; against FBXL10, greater than 7.00; on JMJD2A, less than 5.00.
As for `O=C(O)c1ccnc(-n2nc(Cc3cccc(Cl)c3)cc2O)c1` [Example 164, 2-[3-[(3-chlorophenyl)methyl]-5-hydroxypyrazol-1-yl]pyridine-4-carboxylic acid], the negative logarithm of the IC50 (pIC50) was 5.00 to 6.00 at Jarid1B, 5.00 to 6.00 against JMJD2C, greater than 7.00 against FBXL10 and less than 5.00 at JMJD2A.
For `O=C(O)c1ccnc(-n2nc(Cc3ccc(Cl)cc3)cc2O)c1` [Example 165, 2-[3-[(4-chlorophenyl)methyl]-5-hydroxypyrazol-1-yl]pyridine-4-carboxylic acid], the pIC50 against Jarid1B is 6.00 to 7.00; against JMJD2C it was 5.00 to 6.00; against FBXL10, greater than 7.00; on JMJD2A it was less than 5.00.
The matching figures for `Oc1cc(Cc2ccc(Cl)cc2)nn1-c1cc(-c2nnn[nH]2)ccn1` [Example 169, 5-[(4-chlorophenyl)methyl]-2-[4-(1H-tetrazol-5-yl)pyridin-2-yl]pyrazol-3-ol]: 5.00 to 6.00, 5.00 to 6.00, greater than 7.00 and less than 5.00.
For “methyl 2-[5-(benzyloxy)-1H-pyrazol-1-yl]pyridine-4-carboxylate [Example 62]”, the pIC50 in the assay on KDM5A/B is 5.00 to 6.00.

The record behind these values is patent US9604961B2, “Histone demethylase inhibitors” (Celgene Quanticel Research, Inc., priority 2012, dated 2017).
